{"source": "patent US20050191668A1", "about": "“Methods of using peroxisome proliferator-activated receptor alpha target genes” (priority 2004, published 2005)", "key": {"[1]": {"test_system": "Pa13 gene", "assay": "Pa13 gene expression in SKM cells with siRNA-reduced PPARα expression", "assay_type": "cell-based, human", "settings": "SKMU cells with reduced PPARα expression", "source_text": "SiRNA oligos specific to PPARα were designed and used to knock-down or reduce the expression level of PPARα in human SKMU cells following procedures known to those skilled in the art (Brummelkamp et al., 2002, Science, 296: 550-553). Four sets of siRNA oligo were originally designed using GenBank accession number S74349 (human peroxisome proliferator activated receptor alpha, cDNA; PPARα) as the template, and the software, Target Finder (Ambion, Austin, Tex.). […] The sequences for the two sets of siRNA correspond to 907 bp to 927 bp (SEQ ID NO: 21, 5′-[…] A) and 1106 bp to 1126 bp of the cDNA (SEQ ID NO: 22, 5′-[…] T) relative to the first nucleotide of the start codon. The oligos were chemically synthesized by Ambion Inc. (Austin, Tex.). The universal negative control siRNA oligo was purchased from Ambion.\nHuman primary skeletal muscle cells (hSKM, provided by Cambrex, Md.) were prepared the day before transfection at the density of 4.67×10^4 cells/per 60 mm dish (about 20% confluence). The cells were cultured at 37° C., 5% CO2 for 24 hrs with antibiotics-free SKGM medium (Cambrex, Md.). […]\nAgain, total RNA was isolated from the cells and real-time PCR was performed and the expression levels of target genes of interest, such as Pa9, 13 and 21, were quantitatively measured using the RT-PCR technique described in Example 1."}, "[2]": {"test_system": "murine FIAF (fasting induced adipose factor)", "settings": "PPARα wild type mouse liver cells; cited from earlier work"}}}
{"compound": "Cc1cccc(Nc2cc(Cl)nc(SCC(=O)O)n2)c1C", "note": "[Wy14643]", "values": [{"measurement": "induction of Pa13 gene expression (FIG. 6)", "setting": "[1]", "result": "no detectable induction"}, {"measurement": "expression of murine FIAF", "setting": "[2]", "result": "increased"}]}
